{"source": "patent US11096980B2", "about": "“Method of using glycyrrhiza plant-based preparation to reduce toxic effect of polypeptide fungitoxin” (priority 2016, dated 2021)", "tested_on": "IPEC-J2 cells", "experiment": "TEER cell culture assay: protective effect against polypeptide fungitoxins", "format": "cell-based, porcine", "conditions": "for TEER value after addition of toxin (negative control): toxin 0.2-10 μM added on day 8", "experimental": "In order to test the correlations of polypeptide fungitoxins on epithelial tissue under controlled conditions, in vitro studies were performed. Therein, well-characterized test systems based on cell cultures and described in the literature were employed. For feed additives, epithelial cells from the respective organ in question, e.g. in the present case IPEC-J2 cells from the porcine intestine, were preferred. The used epithelial cells from the porcine intestine offer the advantage of being non-transformed cells still having all the important properties of normal intestinal cells and large physiological similarities such as the formation of viable tight junction proteins, which are above all essential for the intestinal barrier, as well as the expression of characteristic enzymes and transport systems (e.g. P-glycoprotein, cytochrome P450 3A4, vit. B 12 transporters etc.).\nFor the in vitro examinations of a Glycyrrhiza dry extract, the latter was extracted once again, thus producing a secondary Glycyrrhiza extract. The secondary Glycyrrhiza extract was prepared in that 1 g of the Glycyrrhiza dry extract and 9 ml 70% ethanol was each weighed in, mixed, and shaken at 700 rpm for one hour at room temperature. After this, the solution was centrifuged, and the liquid supernatant was sterile filtered using a 0.2 μm filter and further diluted with IPEC-J2 medium. The secondary Glycyrrhiza extract was tested in vitro in the following concentrations: 250 μg, 500 μg and 1,000 μg Glycyrrhiza dry extract per ml medium in the test formulation, in the following also referred to as 250, 500 and 1,000 μg/ml secondary Glycyrrhiza extract.\nThe TEER technique described by Geens and Niewold (Cytotechnology, 2011, 63, 415 et seq.) was used in an adapted form. In this in vitro model, intestinal porcine epithelial cells (IPEC-J2, DSMZ No.: ACC 701, Passage 1-15) are cultivated in an insert on a permeable polyester membrane (1.12 cm^2 surface area, 0.4 μm pore size, 12 mm membrane diameter) and differentiated in the incubator for a period of 8 days at 39° C. and 5% CO2. Per insert, 1×10^∧5 cells in 0.5 ml medium are applied to the respective membrane. During said differentiation period, the used medium was aspirated every other day and replaced with fresh medium. The insert was fixed in a 12-well cell culture plate, and the cells were supplied with 1.5 ml medium from below (basolateral compartment) and with 0.5 ml medium from above (apical compartment). […]\nDifferentiated cells form a cell barrier, being strongly interconnected by tight junction proteins. […] The intactness of the cell barrier is measured by means of a volt-ohmmeter: The electrical resistance between the two compartments is referred to as TEER (transepithelial electrical resistance) value and represented in kOhm×cm^2. […]", "data": [{"compound": "CC[C@H](C)[C@H]1C(=O)O[C@H](C(C)C)C(=O)N(C)[C@@H]([C@@H](C)CC)C(=O)O[C@H](C(C)C)C(=O)N(C)[C@@H]([C@@H](C)CC)C(=O)O[C@H](C(C)C)C(=O)N1C", "note": "[enniatin A]", "values": [{"measurement": "TEER mean value (toxin)", "setting": "enniatin A 5 μM alone (negative control), after 24 hours", "result": 3.928, "unit": "kOhm×cm^2"}]}, {"compound": "CC1(C)[C@@H](O[C@H]2O[C@H](C(=O)O)[C@@H](O)[C@H](O)[C@H]2O[C@@H]2O[C@H](C(=O)O)[C@@H](O)[C@H](O)[C@H]2O)CC[C@]2(C)[C@H]3C(=O)C=C4[C@@H]5C[C@@](C)(C(=O)O)CC[C@]5(C)CC[C@@]4(C)[C@]3(C)CC[C@@H]12", "note": "[glycyrrhizic acid]", "values": [{"measurement": "Effect in the TEER test against enniatins A, A1, B, B1, beauvericin and apicidin relative to the negative controls", "setting": "70 μg/ml (corresponding to 1.000 μg/ml secondary Glycyrrhiza extract)", "result": "no positive effect"}]}, {"compound": "CCC(=O)CCCCC[C@@H]1NC(=O)[C@H]2CCCCN2C(=O)[C@H]([C@@H](C)CC)NC(=O)[C@H](Cc2cn(OC)c3ccccc23)NC1=O", "note": "[apicidin]", "values": [{"measurement": "TEER value after addition of toxin (negative control)", "result": "lowered"}]}, {"compound": "enniatins", "values": [{"measurement": "TEER value after addition of toxin (negative control)", "result": "lowered"}]}]}
